Literature values as cited in patent US20090156457A1, “METHODS AND MEANS FOR SCREENING FOR RHOMBOID ACTIVITY” (MEDICAL RESEARCH COUNCIL, priority 2004, published 2009).

System: Rhomboid

| Compound | Rhomboid activity |
| --- | --- |
| Cc1ccc(S(=O)(=O)N[C@@H](Cc2ccccc2)C(=O)CCl)cc1 [TPCK] | inhibit Rhomboid activity |
| O=c1oc(Cl)c(Cl)c2ccccc12 [3,4-DCI] | inhibit Rhomboid activity |
